Data taken from patent publication US20260248922A1, “TREATMENT OF SIGNS, SYMPTOMS AND/OR COMPLICATIONS OF VIRAL, BACTERIAL, PROTOZOAL, AND/OR FUNGAL INFECTIONS BY HIGH PENETRATION PRODRUGS” (priority 2022, published 2026).

Legend:
[1] = tested on: COVID-19; assay: Phase 2 placebo-controlled study in COVID-19 infection in hospitalized adults (Example 81); type: in vivo, human; settings: hospitalized COVID-19 patients, 7% solution in 15% ethanol sprayed on skin BID for 28 days
Text: Patients cannot be enrolled or randomized before all eligibility criteria (including test results) are confirmed.
Inclusion criteria: • 1. Admitted to a hospital with pulmonary symptoms of active COVID-19. • 2. Patient (or legally authorized representative) provides informed consent prior to initiation of any study procedures. • 3. Patient (or legally authorized representative) understands and agrees to comply with planned study procedures. • 4. Male or nonpregnant female adult ≥18 years of age at time of enrollment. • 5. Has laboratory confirmed severe acute respiratory syndrome coronavirus 2 (COVID-19) infection as determined by polymerase chain reaction (PCR) or other commercial or public health assay (serology is not acceptable) in any specimen, as documented by either of the following: • a. Laboratory confirmed COVID-19 infection by method as defined above, in sample collected <72 hours prior to randomization; OR • b. […] Has a room-air SpO2<93% and a score of 4 (hospitalized, oxygen by mask or nasal prongs), or room-air SpO2<93% and a score of 5 (hospitalized, noninvasive ventilation or high-flow oxygen), or a score 6 (hospitalized, intubation and mechanical ventilation) in the ordinal scale, which specifically is as follows: • 0) Uninfected, no clinical or virological evidence of infection • 1) Ambulatory (not diagnosed), no limitations of activities. • 2) Ambulatory (not diagnosed), limitation on activities and/or requiring home oxygen • 3) Diagnosed (mild disease), no requiring supplemental oxygen; • 4) Diagnosed (moderate disease), requiring supplemental oxygen (by mask or nasal prongs)—requiring ongoing medical care (COVID-19 related or otherwise); • 5) Diagnosed (severe disease), non-invasive ventilation or high-flow oxygen; • 6) Diagnosed (severe disease), intubation and mechanical ventilation; • 7) Diagnosed (severe disease), ventilation+additional organ support-pressors, RRT, or extracorporeal membrane oxygenation (ECMO); • 8) Death. • 7. […]

[2] = tested on: paw edema; assay: Antiinflammatory activity, carrageenan paw edema in rats; type: in vivo, Wistar Rats; settings: transdermal, 20 mg/kg
[3] = tested on: MRSA; assay: Sepsis model of MRSA infection in mice (Example 79); type: in vivo, C57/BL6 mice; settings: transdermal once a day
Text: (§1) A total of seventy C57/BL6 mice (7 groups, 10/group) were used in this study. At day 0, mice were anesthetized with isoflurane and held in a dorsal recumbent position for administration of 2×10^7CFU S. aureus by intraperitoneal (IP) injections, from hour 2 post challenge, mice were received a single dose of different concentrations of test article or vehicle control once a day up to 15th day with dose initiation on hour 2 post challenge. Group 1 served as an infected control group and was treated with vehicle (35% ethanol). […] Mice were observed following MRSA challenge for clinical signs of illness including body weights, health score, morbidity and mortality.

[4] = tested on: LPS-induced fever; assay: Antipyretic activity, fever induced by LPS in rats; type: in vivo, Sprague Dawley rats; settings: transdermal, 20 mg/kg
Experimental: The body temperature of rats was taken at 0 (2 hours after the challenge), 90 min, 180 min, and 270 min after the administration of the test compounds.

[5] = tested on: cecal slurry-induced sepsis; assay: Cecal slurry-induced sepsis mouse model (Example 75); type: in vivo, C57/BL6 mice; settings: transdermal once a day
Experimental: as §1, with “10 mg/mouse cecal slurry” for “2×10^7CFU S. aureus”, “viral” for “MRSA”

[6] = tested on: COVID-19; assay: COVID-19 infection mouse model (Example 70); type: in vivo, hACE2 mice; settings: transdermal once a day
Experimental: as §1, with “hACE2” for “C57/BL6”, “3×10 PFU/mouse COVID-19” for “2×10^7CFU S. aureus”, “internasal instillation,” for “intraperitoneal (IP) injections,”, “day 1” for “hour 2”, “viral” for “MRSA”
Lung lesions and peribronchiolitis of all deceased and surviving animals were characterized (Table 17).

[7] = tested on: H1N1 virus; assay: H1N1 virus infection mouse model (Example 65); type: in vivo, mice; settings: transdermal once a day
Experimental: as §1, with “seventy” for “seventy C57/BL6”, “0.1×TCID50/mouse virus (new batch)” for “2×10^7CFU S. aureus”, “internasal instillation,” for “intraperitoneal (IP) injections,”, “day” for “hour”, “viral” for “MRSA”
Lung lesions and peribronchiolitis of all deceased and surviving animals were characterized (Table 7).

[8] = Skin penetration through rabbit skin in vitro, modified Franz cells; settings: receiving fluid pure water
[9] = 2 h (before test articles treatment)
[10] = 6 h (4 hours after administration)
[11] = time 0 (before carrageenan challenge)
[12] = T = 0 min (2 hours after LPS challenge)

Compound: CCN(CC)CCOC(=O)c1ccccc1OC(C)=O.Cl [Example 4]
- hospital stay time, average [1]: about 4 days
- time to an improvement of 2 categories using 9-point ordinal scale, average [1]: about 3 days
- time to maintain peripheral capillary oxygen saturation (SpO2) of >93% without oxygen support, average [1]: about 3 days

Compound: CCN(CC)CCOC(=O)C(C)c1ccc(CC(C)C)cc1.Cl (stereo not shown) [Example 2]
- Paw Volume Mean [2, 9]: 1.697 mL
- Paw Volume Mean [2, 10]: 1.402 mL
- Paw Volume Mean [2, 11]: 1.225 mL
- survival ([3]; group 5, low dose 24.6 mg/kg): 40%
- survival ([3]; group 6, mid dose 49.2 mg/kg): 60%
- survival ([3]; group 7, high dose 98.4 mg/kg): 50%
- body temperature (Mean) [4, 12]: 38.31
- body temperature (Mean) ([4]; T = 90 min): 37.57
- body temperature (Mean) ([4]; T = 180 min): 36.86
- body temperature (Mean) ([4]; T = 270 min): 36.63
- survival ([5]; group 5, low dose 24.6 mg/kg): 50%
- survival ([5]; group 6, mid dose 49.2 mg/kg): 50%
- survival ([5]; group 7, high dose 98.4 mg/kg): 40%
- survival ([6]; group 5, low dose 24.6 mg/kg): 60%
- survival ([6]; group 6, mid dose 49.2 mg/kg): 50%
- survival ([6]; group 7, high dose 98.4 mg/kg): 50%

Compound: COc1ccc2cc(C(C)C(=O)OCC3CCCN3)ccc2c1.Cl (stereo not shown) [Example 16, (pyrrolidin-2-yl)methyl 2-(6-methoxy-2-naphthyl) propanoate hydrochloride]
- survival ([3]; group 2, low dose 25.1 mg/kg): 20%
- survival ([3]; group 3, mid dose 50.2 mg/kg): 30%
- survival ([3]; group 4, high dose 100.3 mg/kg): 40%
- body temperature (Mean) [4, 12]: 38.30
- body temperature (Mean) ([4]; T = 90 min): 37.38
- body temperature (Mean) ([4]; T = 180 min): 36.79
- body temperature (Mean) ([4]; T = 270 min): 36.53
- survival ([6]; group 2, low dose 25.1 mg/kg): 30%
- survival ([6]; group 3, mid dose 50.2 mg/kg): 50%
- survival ([6]; group 4, high dose 100.3 mg/kg): 50%
- survival ([7]; group 2, low dose 25.1 mg/kg): 20%
- survival ([7]; group 3, mid dose 50.2 mg/kg): 20%
- survival ([7]; group 4, high dose 100.3 mg/kg): 40%

Compound: Cl.O=C(Cc1ccccc1Nc1c(Cl)cccc1Cl)OCC1CCCN1 (stereo not shown) [Example 1]
- Paw Volume Mean [2, 9]: 1.719 mL
- Paw Volume Mean [2, 10]: 1.314 mL
- Paw Volume Mean [2, 11]: 1.245 mL
- body temperature (Mean) [4, 12]: 38.38
- body temperature (Mean) ([4]; T = 90 min): 37.10
- body temperature (Mean) ([4]; T = 180 min): 36.42
- body temperature (Mean) ([4]; T = 270 min): 36.41
- survival ([7]; group 5, low dose 24.6 mg/kg): 70%
- survival ([7]; group 6, mid dose 49.2 mg/kg): 60%
- survival ([7]; group 7, high dose 98.4 mg/kg): 50%
- The cumulative amount of test compounds ([8]; 1 h): 0.48 mg
- The cumulative amount of test compounds ([8]; 2 h): 0.99 mg
- The cumulative amount of test compounds ([8]; 4 h): 2.03 mg
- The cumulative amount of test compounds ([8]; 8 h): 4.09 mg
